The source of these data is US12319655B2, “RAF kinase inhibitors and methods of use thereof” (Deciphera Pharmaceuticals, LLC, priority 2021, dated 2025).

Where only a bound is given, the exact number is not on record here.

The subject of the first assay is WM3629 cells. Kind of assay: WM3629 Cell Proliferation Assay (1). Format: cell-based.
Conditions: not given
Usually IC50 stands for the point on the concentration scale where inhibition reaches its midpoint. For `Cc1ccc(NC(=O)c2ccnc(C(C)(C)F)c2)cc1-c1cncc(-c2cc(NC(=O)C3CC3)ncn2)c1` [Example 394], the 50% inhibitory concentration (IC50) was at most 0.1 µM.

On to `Cc1ccc(NC(=O)c2ccnc(C3(C#N)CC3)c2)cc1-c1cncc(-c2cc(NC(=O)C3CC3)ncn2)c1` [Example 395], for which the 50% inhibitory concentration (IC50) was at most 0.1 µM.

In the case of `Cc1ccc(NC(=O)c2ccnc(C(C)(C)C#N)c2)cc1-c1cccc(-c2cc(NC(=O)C3CC3)ncn2)c1` [Example 77], the IC50 was at most 0.1 µM.

As to `Cc1ccc(NC(=O)c2ccnc(C(F)(F)F)c2)cc1-c1cncc(-c2cc(NC(=O)C3CC3)ncn2)c1` [Example 397], the IC50 is at most 0.1 µM.

`CNC(=O)c1cc(-c2cc(-c3cc(NC(=O)c4cccc(C(F)(F)F)c4)cnc3C)ccn2)ccn1` [Example 52]: the IC50 is at most 0.1 µM.

`Cc1ccc(NC(=O)c2ccnc(C(F)(F)F)c2)cc1-c1cccc(-c2cc(NC(=O)C3CC3)ncn2)c1` [Example 80]: the half-maximal inhibitory concentration (IC50) was at most 0.1 µM.

As for `CCOc1ncc(-c2cc(NC(=O)c3ccnc(C(F)(F)F)c3)ccc2C)cc1-c1ccnc(C(=O)NC)c1` [Example 69], the IC50 is at most 0.1 µM.

For the next assay, the system named is Miapaca-2 cells. Nature of the assay: MiaPaca-2 Combination Cell proliferation Assay (1) with cobimetinib. The class given is cell-based. As to conditions: MiaPaca-2 cell proliferation, read-out: MiaPaca-2 Combo (1) IC50.
With `CC(=O)Nc1cc(-c2cc(-c3cc(NC(=O)c4ccnc(C(F)(F)F)c4)ccc3C)cc(OCCO)n2)ccn1` [Example 1, N-(3-(2′-acetamido-6-(2-hydroxyethoxy)-[2,4′-bipyridin]-4-yl)-4-methylphenyl)-2-(trifluoromethyl)isonicotinamide], the 50% inhibitory concentration (IC50) is at most 0.1 µM.

As to `CC(=O)Nc1cc(-c2cc(-c3cc(NC(=O)c4ccnc(C(F)(F)F)c4)ccc3C)nc(N(C)C)n2)ccn1` [Example 41, N-(3-(6-(2-acetamidopyridin-4-yl)-2-(dimethylamino)pyrimidin-4-yl)-4-methylphenyl)-2-(trifluoromethyl)isonicotinamide], the concentration for half-maximal inhibition (IC50) is at most 0.1 µM.

Regarding `Cc1ccc(NC(=O)c2ccnc(C(F)(F)F)c2)cc1-c1ccnc(-c2ccnc(NC(=O)C3CC3)c2)c1` [Example 54], the 50% inhibitory concentration (IC50) is at most 0.1 µM.

In the case of `CNC(=O)c1cc(-c2cncc(-c3cc(NC(=O)c4ccnc(C(C)(C)C#N)c4)ccc3C)n2)ccn1` [Example 86], the 50% inhibitory concentration (IC50) is at most 0.1 µM.

Regarding `Cc1ccc(NC(=O)c2ccnc(C(C)(C)F)c2)cc1-c1cncc(-c2cc(NC(=O)C3CC3)ncn2)c1` [Example 394], the IC50 was 1 to 10 µM.

As to `CC(=O)Nc1cc(-c2cc(-c3cc(NC(=O)c4ccnc(C(F)(F)F)c4)c(F)cc3C)ccn2)ccn1` [Example 2], the concentration for half-maximal inhibition (IC50) was at most 0.1 µM.

`Cc1ccc(NC(=O)c2ccnc(C(C)(C)C#N)c2)cc1-c1cccc(-c2cc(NC(=O)C3CC3)ncn2)c1` [Example 77]: the IC50 was at most 0.1 µM.

With `COCC(=O)Nc1cc(-c2nccc(-c3cc(NC(=O)c4ccnc(C(C)(C)C#N)c4)ccc3C)n2)ccn1` [Example 88], the half-inhibitory concentration (IC50) was at most 0.1 µM.

For `COCC(=O)Nc1cc(-c2cc(-c3cc(NC(=O)c4ccnc(C(C)(C)C#N)c4)ccc3C)ccn2)ccn1` [Example 61], the half-inhibitory concentration (IC50) was at most 0.1 µM.

Regarding `CC(=O)Nc1cc(-c2cccc(-c3cc(NC(=O)c4ccnc(C(C)(C)C#N)c4)ccc3C)c2)ncn1` [Example 79], the 50% inhibitory concentration (IC50) is at most 0.1 µM.

Regarding `Cc1ccc(NC(=O)c2ccnc(C(C)(C)C#N)c2)cc1-c1ccnc(-c2ccnc(NC(=O)CC#N)c2)c1` [Example 63], the IC50 is 0.1 to 0.5 µM.

For the compound `CNC(=O)c1cc(-c2cc(-c3cc(C(=O)Nc4ccnc(C(C)(C)C#N)c4)ccc3C)ccn2)ccn1` [Example 74], the IC50 is at most 0.1 µM.

As for `CNC(=O)c1cc(-c2cncc(-c3cc(NC(=O)c4ccnc(C(F)(F)F)c4)ccc3C)n2)ccn1` [Example 47], the IC50 lay within 0.1 to 0.5 µM.

For the compound `Cc1ccc(NC(=O)c2ccnc(C(F)(F)F)c2)cc1-c1cccc(-c2ccnc(NC(=O)CC#N)c2)c1` [Example 62], the IC50 is 0.1 to 0.5 µM.

For the compound `Cc1ccc(NC(=O)c2ccnc(C(F)(F)F)c2)cc1-c1ccnc(-c2ccnc(NC(=O)CC#N)c2)c1` [Example 39, N-(3-(2′-(2-cyanoacetamido)-[2,4′-bipyridin]-4-yl)-4-methylphenyl)-2-(trifluoromethyl)isonicotinamide], the IC50 was 0.1 to 0.5 µM.

As for `CNC(=O)c1cc(-c2cc(-c3cc(NC(=O)c4ccnc(C(F)F)c4)ccc3C)ccn2)ccn1` [Example 48], the concentration for half-maximal inhibition (IC50) is at most 0.1 µM.

Turning to `CNC(=O)c1cc(-c2nccc(-c3cc(NC(=O)c4ccnc(C(C)(C)C#N)c4)ccc3C)n2)ccn1` [Example 78], the concentration for half-maximal inhibition (IC50) was at most 0.1 µM.

On to `Cc1ccc(NC(=O)c2ccnc(C(F)(F)F)c2)cc1-c1cccc(-c2cc(NC(=O)C3CC3)ncn2)c1` [Example 80], for which the half-maximal inhibitory concentration (IC50) is at most 0.1 µM.

Take `Cc1ccc(NC(=O)c2ccnc(C(C)(C)C#N)c2)cc1-c1cncc(-c2ccnc3c2CC(=O)N3)n1` [Example 43]: the IC50 was 0.1 to 0.5 µM.

In the case of `CNC(=O)c1cc(-c2cc(-c3cc(NC(=O)c4ccnc(C(C)(C)C#N)c4)ccc3C)ccn2)ccn1` [Example 50], the IC50 was at most 0.1 µM.

Take `CCOc1ncc(-c2cc(NC(=O)c3ccnc(C(F)(F)F)c3)ccc2C)cc1-c1ccnc(NC(C)=O)c1` [Example 68]: the 50% inhibitory concentration (IC50) is at most 0.1 µM.

Take `CC(=O)Nc1cc(-c2cc(-c3cc(NC(=O)c4ccnc(C(C)(C)C#N)c4)ccc3C)nc(C)n2)ccn1` [Example 89]: the half-inhibitory concentration (IC50) is at most 0.1 µM.
